Measured values from patent publication US10710978B2, “STK4 inhibitors for treatment of hematologic malignancies” (Dana-Farber Cancer Institute, Inc., priority 2015, dated 2020).
Where two headings read alike, the source gives them in different places.

Experiments:
Experiment in all cases: KiNativ assay
Format in all cases: binding
Conditions in all cases: H929 live cell
[1] = tested on: AurA, AurB, AurC
Method: (§1) Biochemical IC50s of the compounds of the present disclosure against various kinases were measured in a KiNativ assay. Compounds were screened in duplicate at 10 μM in H929 live cell. IC50 was measured via Mass spectroscopy (MS).

[2] = target: BRAF (Homo sapiens (Human), UniProt P15056)
Method: as §1

[3] = target: CDK5 (Homo sapiens (Human), UniProt Q00535)
Method: as §1

[4] = target: CK1a (Homo sapiens (Human), UniProt P48729)
Method: as §1

[5] = target: CK1g2 (Homo sapiens (Human), UniProt P78368)
Method: as §1

[6] = target: DGKH (Homo sapiens (Human), UniProt Q86XP1)
Method: as §1

[7] = target: EphB2 (Homo sapiens (Human), UniProt P29323)
Method: as §1

[8] = target: FRAP (Homo sapiens (Human), UniProt P42345)
Method: as §1

[9] = target: HPK1 (Homo sapiens (Human), UniProt Q92918)
Method: as §1

[10] = target: IKKa (Homo sapiens (Human), UniProt O15111)
Method: as §1

[11] = target: MAP2K1 (Homo sapiens (Human), UniProt Q02750)
Method: as §1

[12] = target: MAP2K3 (Homo sapiens (Human), UniProt P46734)
Method: as §1

[13] = target: MAP2K5 (Homo sapiens (Human), UniProt Q13163)
Method: as §1

[14] = target: MAP2K7 (Homo sapiens (Human), UniProt O14733)
Method: as §1

[15] = tested on: MARK1, MARK2
Method: as §1

[16] = target: MARK3 (Homo sapiens (Human), UniProt P27448)
Method: as §1

[17] = target: MPSK1 (Homo sapiens (Human), UniProt O75716)
Method: as §1

[18] = target: MST1 (Homo sapiens (Human), UniProt Q13043)
Method: as §1

[19] = tested on: MST4, YSK1
Method: as §1

[20] = tested on: MST4
Method: as §1

[21] = target: NEK9 (Homo sapiens (Human), UniProt Q8TD19)
Method: as §1

[22] = target: OSR1 (Homo sapiens (Human), UniProt O95747)
Method: as §1

[23] = target: PFTAIRE1 (Homo sapiens (Human), UniProt O94921)
Method: as §1

[24] = target: PHKg2 (Homo sapiens (Human), UniProt P15735)
Method: as §1

[25] = tested on: PI4KA, PI4KAP2
Method: as §1

[26] = target: PKD2 (Homo sapiens (Human), UniProt Q9BZL6)
Method: as §1

[27] = target: PKN1 (Homo sapiens (Human), UniProt Q16512)
Method: as §1

[28] = target: PLK1 (Homo sapiens (Human), UniProt P53350)
Method: as §1

[29] = target: RSK2 domain1 (Homo sapiens (Human), UniProt P51812)
Method: as §1

[30] = target: RSKL1 (Homo sapiens (Human), UniProt Q96S38)
Method: as §1

[31] = target: SMG1 (Homo sapiens (Human), UniProt Q96Q15)
Method: as §1

[32] = target: TBK1 (Homo sapiens (Human), UniProt Q9UHD2)
Method: as §1

[33] = target: TYK2 domain2 (Homo sapiens (Human), UniProt P29597)
Method: as §1

[34] = target: ULK1 (Homo sapiens (Human), UniProt O75385)
Method: as §1

PHKg2, sequence (P15735 whole entry): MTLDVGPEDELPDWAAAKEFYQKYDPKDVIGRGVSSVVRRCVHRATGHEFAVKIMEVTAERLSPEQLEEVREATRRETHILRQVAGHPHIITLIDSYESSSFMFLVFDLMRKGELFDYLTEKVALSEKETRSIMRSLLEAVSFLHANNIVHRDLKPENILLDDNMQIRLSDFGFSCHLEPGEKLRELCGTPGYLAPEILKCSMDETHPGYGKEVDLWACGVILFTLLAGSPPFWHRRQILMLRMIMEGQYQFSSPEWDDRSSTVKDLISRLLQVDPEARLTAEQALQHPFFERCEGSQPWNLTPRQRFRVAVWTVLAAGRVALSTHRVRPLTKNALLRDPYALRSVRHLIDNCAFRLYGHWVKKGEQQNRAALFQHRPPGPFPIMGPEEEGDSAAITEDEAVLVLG
MAP2K3, sequence (P46734 whole entry): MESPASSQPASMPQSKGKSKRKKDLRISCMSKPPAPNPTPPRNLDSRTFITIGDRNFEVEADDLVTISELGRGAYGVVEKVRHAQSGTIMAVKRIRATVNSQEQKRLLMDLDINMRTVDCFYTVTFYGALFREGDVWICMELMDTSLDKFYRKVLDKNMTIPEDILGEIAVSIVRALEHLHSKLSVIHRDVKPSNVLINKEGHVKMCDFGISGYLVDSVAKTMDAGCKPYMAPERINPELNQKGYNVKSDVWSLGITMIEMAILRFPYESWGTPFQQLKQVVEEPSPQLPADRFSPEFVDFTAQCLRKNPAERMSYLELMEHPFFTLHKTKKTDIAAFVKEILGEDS
MAP2K5, sequence (Q13163 whole entry): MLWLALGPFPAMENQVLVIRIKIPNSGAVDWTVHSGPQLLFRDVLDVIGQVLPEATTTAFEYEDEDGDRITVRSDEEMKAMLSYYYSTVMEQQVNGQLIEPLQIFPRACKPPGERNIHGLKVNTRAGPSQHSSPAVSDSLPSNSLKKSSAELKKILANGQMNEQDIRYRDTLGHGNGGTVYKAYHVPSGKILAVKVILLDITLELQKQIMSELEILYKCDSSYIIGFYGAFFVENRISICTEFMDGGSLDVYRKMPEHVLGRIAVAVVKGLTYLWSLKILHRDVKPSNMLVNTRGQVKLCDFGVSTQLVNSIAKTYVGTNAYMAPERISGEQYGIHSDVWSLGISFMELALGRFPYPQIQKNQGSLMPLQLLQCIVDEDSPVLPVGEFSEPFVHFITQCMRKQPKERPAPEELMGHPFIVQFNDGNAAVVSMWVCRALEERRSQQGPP
ULK1, sequence (O75385 whole entry): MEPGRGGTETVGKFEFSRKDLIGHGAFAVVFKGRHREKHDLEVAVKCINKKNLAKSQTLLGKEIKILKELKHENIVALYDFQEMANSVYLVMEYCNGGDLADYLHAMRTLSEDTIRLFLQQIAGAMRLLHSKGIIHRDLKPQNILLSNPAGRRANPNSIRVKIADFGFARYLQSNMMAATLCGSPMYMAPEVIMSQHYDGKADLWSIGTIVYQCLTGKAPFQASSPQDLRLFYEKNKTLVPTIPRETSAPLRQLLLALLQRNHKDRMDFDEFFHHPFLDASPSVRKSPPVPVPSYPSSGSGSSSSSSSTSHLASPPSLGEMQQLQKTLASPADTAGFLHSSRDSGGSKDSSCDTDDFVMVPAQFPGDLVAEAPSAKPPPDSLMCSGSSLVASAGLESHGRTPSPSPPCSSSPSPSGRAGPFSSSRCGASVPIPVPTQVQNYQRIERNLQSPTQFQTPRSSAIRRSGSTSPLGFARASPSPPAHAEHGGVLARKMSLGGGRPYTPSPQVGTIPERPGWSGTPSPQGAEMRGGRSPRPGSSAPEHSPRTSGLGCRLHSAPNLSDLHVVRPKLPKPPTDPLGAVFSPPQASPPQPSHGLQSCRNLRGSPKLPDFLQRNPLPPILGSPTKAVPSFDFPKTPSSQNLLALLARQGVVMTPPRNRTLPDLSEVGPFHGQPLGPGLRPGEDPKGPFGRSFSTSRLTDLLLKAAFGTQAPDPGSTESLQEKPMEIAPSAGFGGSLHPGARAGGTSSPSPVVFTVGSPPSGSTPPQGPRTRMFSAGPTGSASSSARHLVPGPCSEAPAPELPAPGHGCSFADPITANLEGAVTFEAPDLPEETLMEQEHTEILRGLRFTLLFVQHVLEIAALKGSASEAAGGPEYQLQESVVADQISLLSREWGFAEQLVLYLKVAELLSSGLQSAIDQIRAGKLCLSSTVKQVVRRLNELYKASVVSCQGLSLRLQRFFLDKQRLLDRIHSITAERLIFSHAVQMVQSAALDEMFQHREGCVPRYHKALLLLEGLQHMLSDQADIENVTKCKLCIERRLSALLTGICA
RSKL1, sequence (Q96S38 whole entry): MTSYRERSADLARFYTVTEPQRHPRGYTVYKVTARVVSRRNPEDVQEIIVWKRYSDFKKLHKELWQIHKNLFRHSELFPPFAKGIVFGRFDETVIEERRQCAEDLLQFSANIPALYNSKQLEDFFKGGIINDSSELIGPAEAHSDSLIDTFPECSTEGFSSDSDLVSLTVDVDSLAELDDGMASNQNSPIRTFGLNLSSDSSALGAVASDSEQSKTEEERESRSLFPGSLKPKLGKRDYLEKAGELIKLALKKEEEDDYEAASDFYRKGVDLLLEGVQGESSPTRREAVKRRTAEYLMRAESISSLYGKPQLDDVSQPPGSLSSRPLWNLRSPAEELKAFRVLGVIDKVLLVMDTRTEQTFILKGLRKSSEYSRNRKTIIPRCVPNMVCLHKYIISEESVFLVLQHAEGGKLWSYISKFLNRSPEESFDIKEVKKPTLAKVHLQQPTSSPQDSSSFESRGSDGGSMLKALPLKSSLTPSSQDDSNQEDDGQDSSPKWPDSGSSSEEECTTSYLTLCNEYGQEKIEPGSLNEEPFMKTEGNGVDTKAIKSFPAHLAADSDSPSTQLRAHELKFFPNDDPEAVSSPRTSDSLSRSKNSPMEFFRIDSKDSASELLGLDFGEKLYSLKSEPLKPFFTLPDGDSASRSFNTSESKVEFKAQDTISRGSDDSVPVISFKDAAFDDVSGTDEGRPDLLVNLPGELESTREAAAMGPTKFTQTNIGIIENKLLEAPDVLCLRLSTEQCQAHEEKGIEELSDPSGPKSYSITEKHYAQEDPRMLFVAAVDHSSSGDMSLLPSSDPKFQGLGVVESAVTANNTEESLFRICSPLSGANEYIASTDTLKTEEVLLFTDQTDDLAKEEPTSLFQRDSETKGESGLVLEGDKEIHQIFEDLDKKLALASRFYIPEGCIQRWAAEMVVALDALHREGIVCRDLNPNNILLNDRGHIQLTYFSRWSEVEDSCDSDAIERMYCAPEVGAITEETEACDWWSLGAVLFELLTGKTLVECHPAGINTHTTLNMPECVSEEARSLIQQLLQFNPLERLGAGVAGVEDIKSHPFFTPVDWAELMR
MAP2K7, sequence (O14733 whole entry): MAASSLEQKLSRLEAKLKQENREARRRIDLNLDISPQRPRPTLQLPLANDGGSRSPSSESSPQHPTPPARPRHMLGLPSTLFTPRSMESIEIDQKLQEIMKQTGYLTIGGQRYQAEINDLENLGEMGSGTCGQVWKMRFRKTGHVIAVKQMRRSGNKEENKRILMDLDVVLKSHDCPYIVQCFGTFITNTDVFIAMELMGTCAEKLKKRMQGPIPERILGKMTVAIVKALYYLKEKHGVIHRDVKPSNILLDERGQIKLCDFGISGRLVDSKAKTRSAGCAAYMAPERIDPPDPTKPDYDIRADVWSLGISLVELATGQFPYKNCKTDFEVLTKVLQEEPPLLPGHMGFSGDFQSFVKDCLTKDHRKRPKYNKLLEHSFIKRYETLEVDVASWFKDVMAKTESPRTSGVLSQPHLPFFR
MPSK1, sequence (O75716 whole entry): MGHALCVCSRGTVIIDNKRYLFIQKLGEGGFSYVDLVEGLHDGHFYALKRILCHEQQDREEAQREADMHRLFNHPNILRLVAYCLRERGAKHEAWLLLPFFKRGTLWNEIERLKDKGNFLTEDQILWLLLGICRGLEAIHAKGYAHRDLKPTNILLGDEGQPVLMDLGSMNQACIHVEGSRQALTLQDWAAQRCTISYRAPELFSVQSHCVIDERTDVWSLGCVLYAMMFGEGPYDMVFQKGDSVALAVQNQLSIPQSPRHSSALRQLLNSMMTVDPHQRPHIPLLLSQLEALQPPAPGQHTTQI
NEK9, sequence (Q8TD19 whole entry): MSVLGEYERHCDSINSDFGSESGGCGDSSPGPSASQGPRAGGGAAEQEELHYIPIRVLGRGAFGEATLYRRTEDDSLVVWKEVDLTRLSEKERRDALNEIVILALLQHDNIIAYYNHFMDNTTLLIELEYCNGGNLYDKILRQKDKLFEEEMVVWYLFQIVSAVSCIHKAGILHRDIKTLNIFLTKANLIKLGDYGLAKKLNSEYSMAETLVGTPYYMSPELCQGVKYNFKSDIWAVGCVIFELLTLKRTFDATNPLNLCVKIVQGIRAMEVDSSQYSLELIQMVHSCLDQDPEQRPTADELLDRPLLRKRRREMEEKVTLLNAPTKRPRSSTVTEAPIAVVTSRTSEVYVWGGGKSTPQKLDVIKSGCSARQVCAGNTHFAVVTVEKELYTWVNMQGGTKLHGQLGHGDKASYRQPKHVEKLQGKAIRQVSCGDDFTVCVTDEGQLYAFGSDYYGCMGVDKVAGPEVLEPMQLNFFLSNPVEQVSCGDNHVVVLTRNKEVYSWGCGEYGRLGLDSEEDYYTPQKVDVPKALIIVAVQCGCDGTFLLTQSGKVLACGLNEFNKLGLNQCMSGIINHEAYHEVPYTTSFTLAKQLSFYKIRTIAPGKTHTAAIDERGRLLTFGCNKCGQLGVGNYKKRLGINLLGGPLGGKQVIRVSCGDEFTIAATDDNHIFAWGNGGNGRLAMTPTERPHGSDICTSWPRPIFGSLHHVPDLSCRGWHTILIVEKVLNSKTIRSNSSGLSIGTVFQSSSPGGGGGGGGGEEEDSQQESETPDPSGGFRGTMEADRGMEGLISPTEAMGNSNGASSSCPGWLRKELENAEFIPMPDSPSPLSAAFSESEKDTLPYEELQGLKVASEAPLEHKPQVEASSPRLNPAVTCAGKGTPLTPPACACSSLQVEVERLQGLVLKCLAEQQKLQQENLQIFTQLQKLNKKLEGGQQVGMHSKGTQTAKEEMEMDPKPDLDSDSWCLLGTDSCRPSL

What does the source list for `CN(C1CC1)S(=O)(=O)c1ccc(-c2cnc(N)c(-c3ccc4c(c3)CCNC4=O)c2)c(F)c1` [Compound I-28, 4-(6-amino-5-(1-oxo-1,2,3,4-tetrahydroisoquinolin-6-yl)pyridin-3-yl)-N-cyclopropyl-3-fluoro-N-methylbenzenesulfonamide]?
% inhibition (range) ([1]; 10 μM): 0.0%; inhibition (10 μM) [1]: 21.4%; inhibition at 10 µM ([2]; read-out: % inhibition (range)): 0%; inhibition at 10 µM ([2]; read-out: inhibition (10 μM)): -4.6%; inhibition at 10 µM ([3]; read-out: % inhibition (range)): 0%; inhibition at 10 µM ([3]; read-out: inhibition (10 μM)): 17%; inhibition at 10 µM ([4]; read-out: % inhibition (range)): 35 to 50%; inhibition at 10 µM ([4]; read-out: inhibition (10 μM)): 37.8%; inhibition at 10 µM ([5]; read-out: % inhibition (range)): > 90%; inhibition at 10 µM ([5]; read-out: inhibition (10 μM)): > 90%; inhibition at 10 µM ([6]; read-out: % inhibition (range)): 0%; inhibition at 10 µM ([6]; read-out: inhibition (10 μM)): 10.9%; inhibition at 10 µM ([7]; read-out: % inhibition (range)): 0%; inhibition at 10 µM ([7]; read-out: inhibition (10 μM)): -2%; inhibition at 10 µM ([8]; read-out: % inhibition (range)): 35 to 50%; inhibition at 10 µM ([8]; read-out: inhibition (10 μM)): 35.3%; inhibition at 10 µM ([9]; read-out: % inhibition (range)): > 90%; inhibition at 10 µM ([9]; read-out: inhibition (10 μM)): 90.8%; inhibition at 10 µM ([10]; read-out: % inhibition (range)): 0%; inhibition at 10 µM ([10]; read-out: inhibition (10 μM)): 6.4%; inhibition at 10 µM ([11]; read-out: % inhibition (range)): 0%; inhibition at 10 µM ([11]; read-out: inhibition (10 μM)): -5.5%; inhibition at 10 µM ([12]; read-out: % inhibition (range)): 0%; inhibition at 10 µM ([12]; read-out: inhibition (10 μM)): 1.4%; inhibition at 10 µM ([13]; read-out: % inhibition (range)): 50 to 75%; inhibition at 10 µM ([13]; read-out: inhibition (10 μM)): 58%; inhibition at 10 µM ([14]; read-out: % inhibition (range)): 0%; inhibition at 10 µM ([14]; read-out: inhibition (10 μM)): -0.5%; % inhibition (range) ([15]; 10 μM): 0.0%; inhibition (10 μM) [15]: −1.3%; inhibition at 10 µM ([16]; read-out: % inhibition (range)): 0%; inhibition at 10 µM ([16]; read-out: inhibition (10 μM)): 14.5%; inhibition at 10 µM ([17]; read-out: % inhibition (range)): 0%; inhibition at 10 µM ([17]; read-out: inhibition (10 μM)): -9.1%; inhibition at 10 µM ([18]; read-out: % inhibition (range)): > 90%; inhibition at 10 µM ([18]; read-out: inhibition (10 μM)): 94.5%; % inhibition (range) ([19]; 10 μM): 75-90%; inhibition (10 μM) [19]: 76.7%; % inhibition (range) ([20]; 10 μM): 50-75%; inhibition (10 μM) [20]: 63.9%; inhibition at 10 µM ([21]; read-out: % inhibition (range)): 0%; inhibition at 10 µM ([21]; read-out: inhibition (10 μM)): -4.7%; inhibition at 10 µM ([22]; read-out: % inhibition (range)): 0%; inhibition at 10 µM ([22]; read-out: inhibition (10 μM)): 22.8%; inhibition at 10 µM ([23]; read-out: % inhibition (range)): 0%; inhibition at 10 µM ([23]; read-out: inhibition (10 μM)): 22.2%; inhibition at 10 µM ([24]; read-out: % inhibition (range)): 0%; inhibition at 10 µM ([24]; read-out: inhibition (10 μM)): 17.3%; % inhibition (range) ([25]; 10 μM): 0.0%; inhibition (10 μM) [25]: −13.2%; inhibition at 10 µM ([26]; read-out: % inhibition (range)): 35 to 50%; inhibition at 10 µM ([26]; read-out: inhibition (10 μM)): 38.9%; inhibition at 10 µM ([27]; read-out: % inhibition (range)): 35 to 50%; inhibition at 10 µM ([27]; read-out: inhibition (10 μM)): 40.5%; inhibition at 10 µM ([28]; read-out: % inhibition (range)): 0%; inhibition at 10 µM ([28]; read-out: inhibition (10 μM)): 15.2%; inhibition at 10 µM ([29]; read-out: % inhibition (range)): 0%; inhibition at 10 µM ([29]; read-out: inhibition (10 μM)): 20.3%; inhibition at 10 µM ([30]; read-out: % inhibition (range)): 0%; inhibition at 10 µM ([30]; read-out: inhibition (10 μM)): -26.1%; inhibition at 10 µM ([31]; read-out: % inhibition (range)): 35 to 50%; inhibition at 10 µM ([31]; read-out: inhibition (10 μM)): 42.9%; inhibition at 10 µM ([32]; read-out: % inhibition (range)): 0%; inhibition at 10 µM ([32]; read-out: inhibition (10 μM)): 3.4%; inhibition at 10 µM ([33]; read-out: % inhibition (range)): 0%; inhibition at 10 µM ([33]; read-out: inhibition (10 μM)): 3.8%; inhibition at 10 µM ([34]; read-out: % inhibition (range)): 0%; inhibition at 10 µM ([34]; read-out: inhibition (10 μM)): -54.6%
